The results in this text go back to patent publication US20180215727A1, “LYSYL OXIDASE-LIKE 2 INHIBITORS AND USES THEREOF” (PharmAkea, Inc., priority 2015, published 2018).

Counter-ions that a name gives are not always drawn.

For this test, the target named is T1, human LOXL2 (Homo sapiens, UniProt Q9Y4K0).
T1 construct: expressed in transfected cells; secreted protein in 10-20x concentrated conditioned media
T1 sequence (Q9Y4K0 26-774): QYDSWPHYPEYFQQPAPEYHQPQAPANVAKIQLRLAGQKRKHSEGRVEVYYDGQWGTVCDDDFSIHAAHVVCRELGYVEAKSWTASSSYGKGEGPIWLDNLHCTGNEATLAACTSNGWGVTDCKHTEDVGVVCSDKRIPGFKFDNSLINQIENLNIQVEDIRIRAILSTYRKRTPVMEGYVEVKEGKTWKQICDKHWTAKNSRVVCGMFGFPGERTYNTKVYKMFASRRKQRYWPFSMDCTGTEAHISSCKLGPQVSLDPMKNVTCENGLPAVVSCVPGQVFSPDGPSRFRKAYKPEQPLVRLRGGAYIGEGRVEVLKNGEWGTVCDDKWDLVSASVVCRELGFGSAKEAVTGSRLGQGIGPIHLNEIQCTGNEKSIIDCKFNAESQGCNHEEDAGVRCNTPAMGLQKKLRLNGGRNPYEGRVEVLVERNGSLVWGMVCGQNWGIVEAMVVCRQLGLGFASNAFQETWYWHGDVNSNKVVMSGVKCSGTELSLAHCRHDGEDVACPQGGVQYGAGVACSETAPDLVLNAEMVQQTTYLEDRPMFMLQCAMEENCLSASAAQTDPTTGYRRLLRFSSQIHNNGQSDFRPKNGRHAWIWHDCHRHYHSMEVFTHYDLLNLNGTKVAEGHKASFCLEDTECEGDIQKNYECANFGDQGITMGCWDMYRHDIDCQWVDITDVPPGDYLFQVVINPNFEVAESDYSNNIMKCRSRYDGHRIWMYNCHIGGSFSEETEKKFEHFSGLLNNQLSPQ
Kind of test: Human LOXL2 Amine Oxidase Activity Assay (Amplex Red fluorescence). Format: biochemical. Conditions: concentrated conditioned media from CHO cells stably expressing human LOXL2, test compound incubated 2 h at 37° C., pH8, DAP substrate. How it is done: Example B-1: Human LOXL2 Amine Oxidase Activity Assay
LOXL2 amine oxidase activity is evaluated by measuring Amplex Red fluorescence using 10-20× concentrated conditioned media from CHO cells stably expressing human LOXL2. To assay for amine oxidase activity, 10 μL of the concentrated conditioned media is incubated with 2 μL of test compound in DMSO and 73 μL Assay Buffer (50 mM Borate Buffer, pH8) for 2 h at 37° C. After the 2 h incubation, 5 μl of 10 mM 1,5-Diaminopentane (DAP) diluted in Assay Buffer and 10 μl of Amplex Red Mix (8.5 μl Assay Buffer+0.5 μl of 10 mM Amplex Red+1 μl of 500 U/ml Horseradish Peroxidase) are added and the plate mixed and immediately placed on the FlexStaion for fluorescence measurements. Fluorescence is read in kinetic mode every 2 min for 1 hour at excitation=544 and emission=590. The amine oxidase activity is calculated from the slope of the linear portion of the curve.
For the compound `NCc1cc(=O)c2cc(C(=O)N3C[C@@H](O)[C@H](F)C3)ccc2o1` (racemic) [Compound 1-25, Racemic-trans-2-(aminomethyl)-6-(3-fluoro-4-hydroxypyrrolidine-1-carbonyl)-4H-chromen-4-one hydrochloride], the IC50 was 300 to 1000 nM.

`NCc1cc(=O)c2cc(C(=O)N3CCC(C(=O)O)C3)ccc2o1` (single isomer, unassigned) [Compound 1-37, (R) or (S)-1-(2-(Aminomethyl)-4-oxo-4H-chromene-6-carbonyl)pyrrolidine-3-carboxylic Acid hydrochloride] registered an IC50 greater than 1000 nM.

`NCc1cc(=O)c2cc(C(=O)N3CCC(C(=O)O)C3)ccc2o1` (single isomer, unassigned) [Compound 1-38, (R) or (S)-1-(2-(Aminomethyl)-4-oxo-4H-chromene-6-carbonyl)pyrrolidine-3-carboxylic Acid hydrochloride] came in with an IC50 greater than 1000 nM.

The compound `NCc1cc(=O)c2cc(Br)ccc2o1` [Compound 1-1, 2-(Aminomethyl)-6-bromo-4H-chromen-4-one hydrochloride] showed an IC50 of less than 300 nM.

`NCc1cc(=O)c2ccc(Br)cc2o1` [Compound 1-2, 2-(Aminomethyl)-7-bromo-4H-chromen-4-one hydrochloride] registered an IC50 of less than 300 nM.

Take `C#Cc1ccc2oc(CN)cc(=O)c2c1` [Compound 1-3, 2-(Aminomethyl)-6-ethynyl-4H-chromen-4-one hydrochloride]: the IC50 is less than 300 nM.

In the case of `CC(C)(O)C#Cc1ccc2oc(CN)cc(=O)c2c1` [Compound 1-4, 2-(Aminomethyl)-6-(3-hydroxy-3-methylbut-1-yn-1-yl)-4H-chromen-4-one hydrochloride], the IC50 is less than 300 nM.

`C=C(C)C#Cc1ccc2oc(CN)cc(=O)c2c1` [Compound 1-5, 2-(Aminomethyl)-6-(3-methylbut-3-en-1-yn-1-yl)-4H-chromen-4-one trifluoroacetate] showed an IC50 of less than 300 nM.

`NCc1cc(=O)c2cc(-c3ccccc3)ccc2o1` [Compound 1-6, 2-(Aminomethyl)-6-phenyl-4H-chromen-4-one hydrochloride] had an IC50 of less than 300 nM.

`NCc1cc(=O)c2cc(-c3ccccn3)ccc2o1` [Compound 1-7, 2-(Aminomethyl)-6-(pyridin-2-yl)-4H-chromen-4-one hydrochloride] returned a 50% inhibitory concentration (IC50) of less than 300 nM.

On to `NCc1cc(=O)c2cc(-c3cccnc3)ccc2o1` [Compound 1-8, 2-(Aminomethyl)-6-(pyridin-3-yl)-4H-chromen-4-one hydrochloride], for which the IC50 is less than 300 nM.

As for `NCc1cc(=O)c2cc(-c3cnc4ccccc4c3)ccc2o1` [Compound 1-9, 2-(Aminomethyl)-6-(quinolin-3-yl)-4H-chromen-4-one hydrochloride], the IC50 is less than 300 nM.

With `NCc1cc(=O)c2cc(-n3cccn3)ccc2o1` [Compound 1-10, 2-(Aminomethyl)-6-(1H-pyrazol-1-yl)-4H-chromen-4-one hydrochloride], the IC50 was less than 300 nM.

In the case of `NCc1cc(=O)c2ccc(-n3cccn3)cc2o1` [Compound 1-11, 2-(Aminomethyl)-7-(1H-pyrazol-1-yl)-4H-chromen-4-one hydrochloride], the IC50 was less than 300 nM.

`Cn1cc(-c2ccc3oc(CN)cc(=O)c3c2)cn1` [Compound 1-12, 2-(Aminomethyl)-6-(1-methyl-1H-pyrazol-4-yl)-4H-chromen-4-one hydrochloride] came in with an IC50 of less than 300 nM.

The compound `Cn1cc(-c2ccc3oc(CN)cc(=O)c3c2)nn1` [Compound 1-13, 2-(Aminomethyl)-6-(1-methyl-1H-1,2,3-triazol-4-yl)-4H-chromen-4-one hydrochloride] showed an IC50 of less than 300 nM.

Consider `NCc1cc(=O)c2cc(-c3cn(-c4ccccc4)nn3)ccc2o1` [Compound 1-14, 2-(Aminomethyl)-6-(1-phenyl-1H-1,2,3-triazol-4-yl)-4H-chromen-4-one hydrochloride], for which the IC50 was less than 300 nM.

`NCc1cc(=O)c2cc(-c3cn(Cc4ccccc4)nn3)ccc2o1` [Compound 1-15, 2-(Aminomethyl)-6-(1-benzyl-1H-1,2,3-triazol-4-yl)-4H-chromen-4-one hydrochloride] gave a 50% inhibitory concentration (IC50) of less than 300 nM.

In the case of `NCc1cc(=O)c2cc(-c3cn(CCO)nn3)ccc2o1` [Compound 1-16, 2-(Aminomethyl)-6-(1-(2-hydroxyethyl)-1H-1,2,3-triazol-4-yl)-4H-chromen-4-one hydrochloride], the half-inhibitory concentration (IC50) was 300 to 1000 nM.

The compound `CN(C)C(=O)Cn1cc(-c2ccc3oc(CN)cc(=O)c3c2)nn1` [Compound 1-17, 2-(4-(2-(Aminomethyl)-4-oxo-4H-chromen-6-yl)-1H-1,2,3-triazol-1-yl)-N,N-dimethylacetamide hydrochloride] yielded a half-maximal inhibitory concentration (IC50) of less than 300 nM.

Compound `CN(C)C(=O)c1ccc2oc(CN)cc(=O)c2c1` [Compound 1-18, 2-(Aminomethyl)-N,N-dimethyl-4-oxo-4H-chromene-6-carboxamide hydrochloride] had an IC50 greater than 1000 nM.

In turn, `NCc1cc(=O)c2cc(C(=O)N3CCCCC3)ccc2o1` [Compound 1-19, 2-(Aminomethyl)-6-(piperidine-1-carbonyl)-4H-chromen-4-one hydrochloride] showed an IC50 of 300 to 1000 nM.

`NCc1cc(=O)c2cc(N3CC[C@H](O)C3)ccc2o1` [Compound 1-20, (S)-2-(Aminomethyl)-6-(3-hydroxypyrrolidin-1-yl)-4H-chromen-4-one hydrochloride]: the IC50 was 300 to 1000 nM.

Take `NCc1cc(=O)c2cc(C(=O)NCCn3cncn3)ccc2o1` [Compound 1-21, N-(2-(1H-1,2,4-Triazol-1-yl)ethyl)-2-(aminomethyl)-4-oxo-4H-chromene-6-carboxamide hydrochloride]: the IC50 lay in the range of 300 to 1000 nM.

Take `NCc1cc(=O)c2cc(C(=O)NCCS(N)(=O)=O)ccc2o1` [Compound 1-22, 2-(Aminomethyl)-4-oxo-N-(2-sulfamoylethyl)-4H-chromene-6-carboxamide hydrochloride]: the IC50 lay in the range of 300 to 1000 nM.

`NCc1cc(=O)c2cc(C(=O)N3CC[C@@H](N)C3)ccc2o1` [Compound 1-23, (R)-2-(Aminomethyl)-6-(3-aminopyrrolidine-1-carbonyl)-4H-chromen-4-one dihydrochloride] gave a concentration for half-maximal inhibition (IC50) of 300 to 1000 nM.

On to `COC(=O)[C@@H]1CCN(C(=O)c2ccc3oc(CN)cc(=O)c3c2)C1` [Compound 1-24, Methyl (R)-1-(2-(aminomethyl)-4-oxo-4H-chromene-6-carbonyl)pyrrolidine-3-carboxylate hydrochloride], for which the IC50 fell in the range of 300 to 1000 nM.

The compound `CS(=O)(=O)CCNC(=O)c1ccc2oc(CN)cc(=O)c2c1` [Compound 1-26, 2-(Aminomethyl)-N-(2-(methylsulfonyl)ethyl)-4-oxo-4H-chromene-6-carboxamide hydrochloride] yielded an IC50 of 300 to 1000 nM.

The compound `COc1ccc2oc(CN)cc(=O)c2c1` [Compound 1-27, 2-(Aminomethyl)-6-methoxy-4H-chromen-4-one hydrochloride] had an IC50 of less than 300 nM.

`COc1ccc2c(=O)cc(CN)oc2c1` [Compound 1-28, 2-(Aminomethyl)-7-methoxy-4H-chromen-4-one hydrochloride] returned an IC50 of less than 300 nM.

Regarding `NCc1cc(=O)c2ccc(OCc3ccccc3)cc2o1` [Compound 1-29, 2-(Aminomethyl)-7-(benzyloxy)-4H-chromen-4-one hydrochloride], the half-maximal inhibitory concentration (IC50) is less than 300 nM.

As to `NCc1cc(=O)c2cc(OCc3ccccc3)ccc2o1` [Compound 1-30, 2-(Aminomethyl)-6-(benzyloxy)-4H-chromen-4-one hydrochloride], the IC50 is less than 300 nM.

`C#Cc1ccc2c(=O)cc(CN)oc2c1` [Compound 1-31, 2-(aminomethyl)-7-ethynyl-4H-chromen-4-one hydrochloride] displayed an IC50 of 300 to 1000 nM.

`CN(C)C(=O)COc1ccc2c(=O)cc(CN)oc2c1` [Compound 1-32, 2-((2-(Aminomethyl)-4-oxo-4H-chromen-7-yl)oxy)-N,N-dimethylacetamide hydrochloride] yielded a 50% inhibitory concentration (IC50) of 300 to 1000 nM.

Turning to `NCc1cc(=O)c2ccc(-c3cn(-c4ccccc4)nn3)cc2o1` [Compound 1-33, 2-(Aminomethyl)-7-(1-phenyl-1H-1,2,3-triazol-4-yl)-4H-chromen-4-one hydrochloride], the IC50 is less than 300 nM.

`NCc1cc(=O)c2cc(OCC(=O)O)ccc2o1` [Compound 1-34, 2-((2-(Aminomethyl)-4-oxo-4H-chromen-6-yl)oxy)acetic acid hydrochloride] showed an IC50 of 300 to 1000 nM.
